Laboratory results from PubChem BioAssay (NCI).
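48-hour exposure; five concentrations; linearly interpolated endpoints. GI50 = concentration required for 50% inhibition of growth. TGI marks complete inhibition of growth.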

What was measured:
Experiment in all cases: DTP human tumour cell line panel, 48 h
DU-145 prostate = system: DU-145 prostate
SF-268 CNS = system: SF-268 CNS
M14 melanoma = system: M14 melanoma
SNB-19 CNS = system: SNB-19 CNS
UACC-62 melanoma = system: UACC-62 melanoma
HCC-2998 colon = system: HCC-2998 colon
MALME-3M melanoma = system: MALME-3M melanoma
OVCAR-8 ovarian = system: OVCAR-8 ovarian
SNB-78 CNS = system: SNB-78 CNS
DMS 273 small cell lung = system: DMS 273 small cell lung
LXFL 529 NSCLC = system: LXFL 529 NSCLC
M19-MEL melanoma = system: M19-MEL melanoma

Row | Compound | GI50 (DU-145 prostate) | TGI (DU-145 prostate) | GI50 (SF-268 CNS) | TGI (SF-268 CNS) | GI50 (M14 melanoma) | TGI (M14 melanoma) | GI50 (SNB-19 CNS) | TGI (SNB-19 CNS) | GI50 (UACC-62 melanoma) | GI50 (HCC-2998 colon) | TGI (HCC-2998 colon) | GI50 (MALME-3M melanoma) | TGI (MALME-3M melanoma) | GI50 (OVCAR-8 ovarian) | TGI (OVCAR-8 ovarian) | TGI (SNB-78 CNS) | TGI (DMS 273 small cell lung) | TGI (UACC-62 melanoma) | TGI (LXFL 529 NSCLC) | TGI (M19-MEL melanoma)
1 | CC12CCC(O)CC1CCC1C2CCC2(C)C(C3=CC(=O)OC3)CCC12 (stereo not given) | 42.4 µM | > 100 µM | 5.17 µM | > 41.8 µM | > 100 µM | > 100 µM | 14.2 µM | > 100 µM | 0.522 µM | > 100 µM | > 100 µM | 26.3 µM | > 90.1 µM | 16.9 µM | > 100 µM | – | – | – | – | –
2 | Cc1nn(C)c(=S)n(C)c1=O | – | – | – | > 100 µM | – | > 100 µM | – | 41 µM | – | – | > 100 µM | – | 37.2 µM | – | 27.3 µM | > 100 µM | 11 µM | > 100 µM | 54.6 µM | > 100 µM
3 | COP1(=S)OCC2CCC[C@@H]2O1 (stereo not given in full) | – | > 100 µM | – | > 100 µM | – | > 100 µM | – | > 100 µM | – | – | > 100 µM | – | > 100 µM | – | > 100 µM | – | – | > 100 µM | – | –
4 | CCCCCCCCCC(=O)N[C@H]1CCc2cc(OC)c(OC)c(OC)c2-c2ccc(SC)c(=O)cc21 | – | – | – | – | – | – | – | 75 µM | – | – | 0.0563 µM | – | – | – | – | 38.9 µM | 0.295 µM | 15.3 µM | 96.7 µM | 67.4 µM
5 | COC(=O)[C@]12CC[C@@H](C)[C@H](C)[C@@H]1C1=CC[C@@H]3[C@@]4(C)C=C(O)C(=O)C(C)=C4CC[C@@]3(C)[C@]1(C)CC2 | 15.2 µM | 33.3 µM | 15.2 µM | 35.1 µM | 11 µM | 29 µM | 18.7 µM | 40.9 µM | 14.5 µM | 8.6 µM | 23.3 µM | 22.4 µM | 42.8 µM | 16.9 µM | 39.4 µM | – | – | 31.3 µM | – | –
6 | COc1ccc2c(c1)C(=O)c1c-2n(CCCCl)c(=O)c2cc(N(C)C)ccc12 | > 100 µM | > 100 µM | 33.3 µM | > 100 µM | > 100 µM | > 100 µM | 56.4 µM | > 100 µM | 41 µM | > 100 µM | > 100 µM | 63.8 µM | > 100 µM | 42.5 µM | > 100 µM | – | – | > 100 µM | – | –
7 | NCC(=O)CCC(=O)O | > 100 µM | > 100 µM | > 100 µM | > 100 µM | > 100 µM | > 100 µM | > 100 µM | > 100 µM | > 100 µM | > 100 µM | > 100 µM | > 100 µM | > 100 µM | > 100 µM | > 100 µM | – | – | > 100 µM | – | –
8 | O=C1C(=O)c2c(nc3ncccn23)-c2ccccc21 | 0.181 µM | 0.336 µM | 0.339 µM | 1.13 µM | 0.182 µM | 0.343 µM | 0.247 µM | 0.722 µM | 0.177 µM | 0.408 µM | 0.935 µM | 0.169 µM | 0.307 µM | 0.306 µM | 1.27 µM | – | – | 0.326 µM | – | –
